# Where “and” joins values, the source holds several entries; their conditions need not be identical. Equal values may be shown once. Read-outs that look alike come from different tables or passages of the source.
# How the values were obtained:
# yeast strain Σ1278b = assay: Uptake of ^14C-methylamine in yeast strain Σ1278b; type: cell-based, Saccharomyces cerevisiae; conditions: 10 mM glucose; for Uptake of ^14C-methylamine in presence of carbonyl cyanide m-chlorophenylhydrazone (CCCP): Σ1278b +CCCP 10 pM; for Uptake of ^14C-methylamine in presence of 0.1 mM dinitrophenol (DNP): Σ1278b +DNP 0.1 mM
# Description: (§1) The yeast lines 26972c::pFL61, 26972c::pFL61-MEP-a and their starting lines S1278b (Dubois & Grenson, 1979, Mol Gen Genet 175: 67-76, MEP-1/MEP-2 ura3) were grown in liquid medium with 1.7 g yeast nitrogen base without ammonium and without amino acids (Difco), 20 g agarose, 1% glucose (w/v), 0.5 mg/l proline until the culture reached the logarithmic phase. After centrifuging of each 25 ml of the culture the cells were washed with 10 mM phosphate pH 7 or pH 4 and taken up in 1.5 ml 10 mM phosphate buffer. Ten minutes before starting the transport measurements, it was made up to an end concentration of 10 mM glucose. […] of the suspension was added to a solution of 10 mM phosphate pH 4 or 7, 100 μM unlabelled methylamine and 5 μCi ^14C-labelled methylamine (0.1 mCi/1.9 μmol) (end concentrations). The uptake of the methylamine was measured after 10, 60, 120 and 180 seconds. For this, to 50 μl of starting material was taken and in a volume of 1 ml H2O+3 mM unlabelled methylamine absorbed on a glass fibre filter. After washing with 10 ml H2O+3 mM unlabelled methylamine the amount of ^14C-labelled methylamine taken up was measured by scintillation (Table Ia and Ib).
# [1] = test system: yeast line 26972c::pFL61-MEP-a; type: cell-based, Saccharomyces cerevisiae; conditions: 10 mM glucose; for Uptake of ^14C-methylamine in presence of carbonyl cyanide m-chlorophenylhydrazone: 26972c::pF161 MEP-a +CCCP 10 pM; for Uptake of ^14C-methylamine in presence of 0.1 mM dinitrophenol (DNP): 26972c::pFL61-MEP-a +DNP 0.1 mM; for Uptake of ^14C-methylamine: 26972c::pFL61-MEP-a, two independent series
# Description: as §1
# Saccharomyces cerevisiae = conditions: cited from earlier work
# [2] = test system: yeast strain 26972c::pFL61; assay: Uptake of ^14C-methylamine in yeast strain 26972c::pFL61 (zero control, plasmid without cDNA insertion); type: cell-based, Saccharomyces cerevisiae; conditions: 10 mM glucose
# Description: as §1
smiles,measurement,setting,value
"N#CC(C#N)=NNc1cccc(Cl)c1 [CCCP, carbonyl cyanide m-chlorophenylhydrazone]",Uptake of ^14C-methylamine in presence of carbonyl cyanide m-chlorophenylhydrazone (CCCP),"yeast strain Σ1278b; pH = 7, 10 sec",173.20 cpm
same,Uptake of ^14C-methylamine in presence of carbonyl cyanide m-chlorophenylhydrazone (CCCP),"yeast strain Σ1278b; pH = 7, 60 sec",316.80 cpm
same,Uptake of ^14C-methylamine in presence of carbonyl cyanide m-chlorophenylhydrazone (CCCP),"yeast strain Σ1278b; pH = 7, 120 sec",460.40 cpm
same,Uptake of ^14C-methylamine in presence of carbonyl cyanide m-chlorophenylhydrazone (CCCP),"yeast strain Σ1278b; pH = 7, 180 sec",608.00 cpm
same,Uptake of ^14C-methylamine in presence of carbonyl cyanide m-chlorophenylhydrazone,"[1]; pH = 7, 10 sec",484.60 cpm
same,Uptake of ^14C-methylamine in presence of carbonyl cyanide m-chlorophenylhydrazone,"[1]; pH = 7, 60 sec",1407.00 cpm
same,Uptake of ^14C-methylamine in presence of carbonyl cyanide m-chlorophenylhydrazone,"[1]; pH = 7, 120 sec",2597.92 cpm
same,Uptake of ^14C-methylamine in presence of carbonyl cyanide m-chlorophenylhydrazone,"[1]; pH = 7, 180 sec",3620.36 cpm
Cl.N [NH4Cl],Uptake of ^14C-methylamine in presence of 0.5 mM NH4Cl,"yeast strain Σ1278b; 1278b, pH = 7, 10 sec",356.60 cpm
same,Uptake of ^14C-methylamine in presence of 0.5 mM NH4Cl,"yeast strain Σ1278b; 1278b, pH = 7, 60 sec",885.60 cpm
same,Uptake of ^14C-methylamine in presence of 0.5 mM NH4Cl,"yeast strain Σ1278b; 1278b, pH = 7, 120 sec",1237.80 cpm
same,Uptake of ^14C-methylamine in presence of 0.5 mM NH4Cl,"yeast strain Σ1278b; 1278b, pH = 7, 180 sec",1597.40 cpm
same,inhibition of methylamine-uptake functions,Saccharomyces cerevisiae; both transport functions of Saccharomyces,inhibitable
same,Uptake of ^14C-methylamine in presence of 0.5 mM NH4Cl,"[2]; 26972c::pFL61, pH = 7, 10 sec",271.60 cpm
same,Uptake of ^14C-methylamine in presence of 0.5 mM NH4Cl,"[2]; 26972c::pFL61, pH = 7, 60 sec",795.80 cpm
same,Uptake of ^14C-methylamine in presence of 0.5 mM NH4Cl,"[2]; 26972c::pFL61, pH = 7, 120 sec",1388.20 cpm
same,Uptake of ^14C-methylamine in presence of 0.5 mM NH4Cl,"[2]; 26972c::pFL61, pH = 7, 180 sec",1773.00 cpm
O=[N+]([O-])c1ccc(O)c([N+](=O)[O-])c1 [DNP],Uptake of ^14C-methylamine in presence of 0.1 mM dinitrophenol (DNP),"yeast strain Σ1278b; pH = 7, 10 sec",167.20 cpm
same,Uptake of ^14C-methylamine in presence of 0.1 mM dinitrophenol (DNP),"yeast strain Σ1278b; pH = 7, 60 sec",386.00 cpm
same,Uptake of ^14C-methylamine in presence of 0.1 mM dinitrophenol (DNP),"yeast strain Σ1278b; pH = 7, 120 sec",706.80 cpm
same,Uptake of ^14C-methylamine in presence of 0.1 mM dinitrophenol (DNP),"yeast strain Σ1278b; pH = 7, 180 sec",906.00 cpm
same,Uptake of ^14C-methylamine in presence of 0.1 mM dinitrophenol (DNP),"[1]; pH = 7, 10 sec",378.00 cpm
same,Uptake of ^14C-methylamine in presence of 0.1 mM dinitrophenol (DNP),"[1]; pH = 7, 60 sec",1349.40 cpm
same,Uptake of ^14C-methylamine in presence of 0.1 mM dinitrophenol (DNP),"[1]; pH = 7, 120 sec",2794.44 cpm
same,Uptake of ^14C-methylamine in presence of 0.1 mM dinitrophenol (DNP),"[1]; pH = 7, 180 sec",2794.44 cpm
"CN [^14C-methylamine, methylamine]",Uptake of ^14C-methylamine,"yeast strain Σ1278b; 1278b, pH = 7, 10 sec",469.60 cpm
same,Uptake of ^14C-methylamine,"yeast strain Σ1278b; 1278b, pH = 7, 60 sec",1022.80 cpm
same,Uptake of ^14C-methylamine,"yeast strain Σ1278b; 1278b, pH = 7, 120 sec",6176.36 cpm
same,Uptake of ^14C-methylamine,"yeast strain Σ1278b; 1278b, pH = 7, 180 sec",16826.67 cpm
same,Uptake of ^14C-methylamine,"yeast strain Σ1278b; Σ1278b, pH = 4, 10 sec",289.00 cpm
same,Uptake of ^14C-methylamine,"yeast strain Σ1278b; Σ1278b, pH = 4, 60 sec",1151.20 cpm
same,Uptake of ^14C-methylamine,"yeast strain Σ1278b; Σ1278b, pH = 4, 120 sec",19605.46 cpm
same,Uptake of ^14C-methylamine,"yeast strain Σ1278b; Σ1278b, pH = 4, 180 sec",32651.43 cpm
same,maximum speed Vmax,Saccharomyces cerevisiae; high affinity transporter with low capacity,20 nmol/min per mg cells (dry weight)
same,Km,"Saccharomyces cerevisiae; high affinity transporter with low capacity, read-out: Km value",250 µM
same,Vmax,Saccharomyces cerevisiae; low affinity system with high capacity,50 nmol/min per mg cells
same,Km,"Saccharomyces cerevisiae; low affinity system with high capacity, read-out: Km",2000 µM
same,Vmax,Saccharomyces cerevisiae; low affinity system with medium capacity,33 nmol/min per mg cells
same,Km,"Saccharomyces cerevisiae; low affinity system with medium capacity, read-out: Km",20000 µM
same,Uptake of ^14C-methylamine,"[2]; 26972c::pFL61, pH = 4, 10 sec, two independent series",220.20 cpm and 117.20 cpm
same,Uptake of ^14C-methylamine,"[2]; 26972c::pFL61, pH = 4, 60 sec, two independent series",200.60 cpm and 138.60 cpm
same,Uptake of ^14C-methylamine,"[2]; 26972c::pFL61, pH = 4, 120 sec, two independent series",284.80 cpm and 197.40 cpm
same,Uptake of ^14C-methylamine,"[2]; 26972c::pFL61, pH = 4, 180 sec, two independent series",317.60 cpm and 285.60 cpm
same,Uptake of ^14C-methylamine,"[2]; 26972c::pFL61, pH = 7, 10 sec",202.20 cpm
same,Uptake of ^14C-methylamine,"[2]; 26972c::pFL61, pH = 7, 60 sec",291.80 cpm
same,Uptake of ^14C-methylamine,"[2]; 26972c::pFL61, pH = 7, 120 sec",524.80 cpm
same,Uptake of ^14C-methylamine,"[2]; 26972c::pFL61, pH = 7, 180 sec",797.80 cpm
same,Uptake of ^14C-methylamine,"[1]; pH = 4, 10 sec",204.80 cpm and 214.80 cpm
same,Uptake of ^14C-methylamine,"[1]; pH = 4, 60 sec",283.80 cpm and 345.60 cpm
same,Uptake of ^14C-methylamine,"[1]; pH = 4, 120 sec",434.40 cpm and 594.60 cpm
same,Uptake of ^14C-methylamine,"[1]; pH = 4, 180 sec",479.60 cpm and 842.20 cpm
same,Uptake of ^14C-methylamine,"[1]; pH = 7, 10 sec",302.80 cpm and 352.20 cpm
same,Uptake of ^14C-methylamine,"[1]; pH = 7, 60 sec",1247.80 cpm and 1292.20 cpm
same,Uptake of ^14C-methylamine,"[1]; pH = 7, 120 sec",3152.50 cpm and 3478.28 cpm
same,Uptake of ^14C-methylamine,"[1]; pH = 7, 180 sec",8490.83 cpm and 6099.39 cpm
